Literature values in patent US8906391B2, “Thermorod for active drug release and method for manufacturing the same” (Korea Sangsa Co., Ltd., priority 2008, dated 2014).

conditions: characteristics of the drugs, Table 1

In order of falling “Hydrophobicity (Log P)” value:
1. CC(=O)O[C@H]1C(=O)[C@@]2(C)[C@H]([C@H](OC(=O)c3ccccc3)[C@]3(O)C[C@H](OC(=O)[C@H](O)[C@@H](NC(=O)c4ccccc4)c4ccccc4)C(C)=C1C3(C)C)[C@]1(OC(C)=O)CO[C@@H]1C[C@@H]2O [Paclitaxel]  5.029
2. CC(=O)O[C@@]12CO[C@@H]1C[C@H](O)[C@@]1(C)C(=O)[C@H](O)C3=C(C)[C@@H](OC(=O)[C@H](O)[C@@H](NC(=O)OC(C)(C)C)c4ccccc4)C[C@@](O)([C@@H](OC(=O)c4ccccc4)[C@H]21)C3(C)C [Docetaxel]  4.258
3. CC[C@H]1OC(=O)[C@H](C)[C@@H](O[C@H]2C[C@@](C)(OC)[C@@H](O)[C@H](C)O2)[C@H](C)[C@@H](O[C@@H]2O[C@H](C)C[C@H](N(C)C)[C@H]2O)[C@](C)(O)C[C@@H](C)C(=O)[C@H](C)[C@@H](O)[C@]1(C)O [Erythromycin]  3.06
4. CC(=O)Nc1ccc(O)cc1 [Acetaminophen]  0.917
